For experiment [1], the target named is CB1-receptor (UniProt P20272). Put plainly: binding of the pyrazoline compounds to CB1-receptors (Pharmacological Methods, Part I). More on the design: IC50; species or system human or rat. As to conditions: radioligand [3H]-CP55940, read-out: IC50. Here is the method:
(§1) I. In-vitro Determination of Affinity to CB1/CB2-Receptors
(§2) The in-vitro determination of the affinity of the inventive 4-substituted pyrazoline compounds to CB1/CB2-Rezeptors is carried out as described in the publication of Ruth A. Ross, Heather C. Brockie et al., “Agonist-inverse agonist characterisation at CB1 and CB2 cannabinoid receptors of L-759633, L759656 and AM630”, British Journal of Pharmacology, 126, 665-672, (1999), whereby the transfected human CB1 and CB2 receptors of Receptor Biology, Inc. are used. The radioligand used for both receptors is [^3H]-CP55940. The respective parts of the description is hereby incorporated by reference and forms part of the present disclosure.
(§3) Rat Cerebellum CB1 Binding
(§4) Binding affinity to CB1 receptor was evaluated according to a modification of the method described by Govaerts et al., Eur J Pharmac Sci 23, 233-243 (2004). The respective parts of the description is hereby incorporated by reference and forms part of the present disclosure.
(§5) Briefly, cerebellum from male wistar rats (250-300 g) were carefully dissected on ice and homogenates were prepared with Potter-Helveheim in a cold 50 mM Tris-HCl solution containing 5 mM MgCl2, 1 mM EDTA and 0.25 M sucrose, pH 7.4. The suspension was centrifuged at […] for 5 minutes. The supernatants were collected and centrifuged 50,000×g for 15 minutes. The resulting pellets were then resuspended in Tris-HCl buffer without sucrose, homogenized and incubated for 15 min at 37° C. in an orbital shaker bath and centrifuged again at 50,000×g for 15 min. Pellets were weighted, resuspended in Tris-HCl buffer without sucrose, homogenized with Ultraturrax at 13,500 rpm for 3×5 seconds and alicuoted in 0.9 ml volumes in Eppendorf tubes. Alicuotes were centrifuged at 20,800×g for 5 minutes, supernatants discarded and pellets were frozen at −80° C. until use. Total protein concentration was determined using the Bio-Rad Lowry method based kit. Competitive binding experiments were performed in presence of 1 nM [^3H]-CP 55,940 in siliconized glass tubes containing 100 μg protein/tube resuspended in 1 ml final volume of 50 mM Tris-HCl, 5 mM MgCl2, 1 mM EDTA, 0.5% (w/v) bovine serum albumin, pH 7.4. Compounds were present at various concentrations and the non specific binding was determined in the presence of 10 μM HU-210. After 1 hour incubation at 30° C., the suspension was rapidly filtered through 0.5% PEI pre-treated GF/B fiber filters on a 96-well harvester and washed 3 times with 3 ml ice-cold binding buffer without bovine serum albumin. Radioactivity on filters was measured with Wallac Winspectral 1414 counter by liquid scintillation in 6 ml Ecoscint H (National Diagnostics, U.K.). Assays were made in triplicates.
(§6) Binding data were analyzed by non-linear regression with the software GraphPad Prism Version 3.03.
(§7) The binding of the pyrazoline compounds of general formula I to CB1-receptors was determined according to the method described in the section Pharmacological Methods, Part I.

Experiment [2] deals with CB1-receptor (UniProt P20272). The experiment is described as above. More on the design: other: 10^−7 M; other: 10^−8 M; species or system human or rat. Here is the method: as §1, §2, §3, §4, §5, §6, §7

The record followed here is patent publication US20070073056A1, “4-Substituted Pyrazoline Compounds, their Preparation and Use as Medicaments” (LABORATORIOS DEL DR. ESTEVE, S.A., priority 2005, published 2007).

Counter-ions that a name gives are not always drawn. Where only a bound is given, the exact number is not on record here.

For orientation: IC50 means the midpoint of a concentration-inhibition curve.

Regarding `C[C@H]1C(C(=O)N2CCN(C3CCCCC3)CC2)=NN(c2ccc(Cl)cc2Cl)[C@H]1c1ccc(Cl)cc1` (relative stereo) [Example 5, cis-[5-(4-Chloro-phenyl)-1-(2,4-dichloro-phenyl)-4-methyl-4,5-dihydro-1H-pyrazol-3-yl]-(4-cyclohexyl-piperazin-1-yl)-methanone], the IC50 on CB1-receptor [1] stood at 200 nM. The same measure, in the same setting: next, `CC1CCN(NC(=O)C2=NN(c3ccc(Cl)cc3Cl)[C@@H](c3ccc(Cl)cc3)[C@H]2C)CC1` (relative stereo) [Example 9, cis-5-(4-Chloro-phenyl)-1-(2,4-dichloro-phenyl)-4-methyl-4,5-dihydro-1H-pyrazole-3-carboxylic acid (4-methyl-piperidin-1-yl)-amide]: 77.3 nM. Still for that read-out and setting: next, `C[C@H]1C(C(=O)NN2CCc3ccccc32)=NN(c2ccc(Cl)cc2Cl)[C@H]1c1ccc(Cl)cc1` (relative stereo) [Example 15, cis-5-(4-Chloro-phenyl)-1-(2,4-dichloro-phenyl)-4-methyl-4,5-dihydro-1H-pyrazole-3-carboxylic acid (2,3-dihydro-indol-1-yl)-amide]: 100 nM; `C[C@H]1C(C(=O)NN2CCCCC2)=NN(c2ccc(Cl)cc2Cl)[C@@H]1c1ccc(Br)s1` (relative stereo) [Example 71, trans-5-(5-Bromo-thiophen-2-yl)-1-(2,4-dichloro-phenyl)-4-methyl-4,5-dihydro-1H-pyrazole-3-carboxylic acid piperidin-1-ylamide]: > 1000 nM; `C[C@H]1C(C(=O)NN2CCCCC2)=NN(c2ccc(Cl)cc2Cl)[C@H]1c1cc(Br)cs1` (relative stereo) [Example 75, cis-5-(4-Bromo-thiophen-2-yl)-1-(2,4-dichloro-phenyl)-4-methyl-4,5-dihydro-1H-pyrazole-3-carboxylic acid piperidin-1-ylamide]: 180 nM. On the same count and under the same terms, next, `C[C@H]1C(C(=O)NN2CC3CCCC3C2)=NN(c2ccc(Cl)cc2Cl)[C@H]1c1ccc(Cl)cc1` (relative stereo) [Example 108, cis-5-(4-Chlorophenyl)-1-(2,4-dichlorophenyl)-4-methyl-4,5-dihydro-1H-pyrazole-3-carboxylic acid (hexahydrocyclopenta[c]pyrrol-2-yl)-amide hydrochloride]: 31.6 nM. As to `C[C@@H]1C(C(=O)O)=NN(c2ccc(Cl)cc2Cl)[C@H]1c1ccc(Br)cc1` (relative stereo) [Example 200, trans-5-(4-bromophenyl)-1-(2,4-dichlorophenyl)-4-methyl-4,5-dihydro-1H-pyrazole-3-carboxylic acid], the Inhibition on CB1-receptor [2] (10^−7 M) is −11.2%; at CB1-receptor [2] (10^−8 M, in %), 3.

For `C[C@H]1C(C(=O)NN2CC3CCCC3C2)=NN(c2ccc(Cl)cc2Cl)[C@H]1c1ccc(F)cc1.Cl` (relative stereo) [Example 233, cis-1-(2,4-dichlorophenyl)-5-(4-fluorophenyl)-N-(hexahydrocyclopenta[c]pyrrol-2(1H)-yl)-4-methyl-4,5-dihydro-1H-pyrazole-3-carboxamide hydrochloride], the Inhibition at CB1-receptor [2] (10^−7 M) is listed as 43.9%; at CB1-receptor [2] (10^−8 M, in %), 27.9.

On to `C[C@H]1C(C(=O)NN2CCc3ccccc32)=NN(c2ccc(Cl)cc2Cl)[C@H]1c1ccc(F)cc1` (relative stereo) [Example 235, cis-1-(2,4-dichlorophenyl)-5-(4-fluorophenyl)-N-(indolin-1-yl)-4-methyl-4,5-dihydro-1H-pyrazole-3-carboxamide], for which the Inhibition on CB1-receptor [2] (10^−7 M) is given as 25.9%; on CB1-receptor [2] (10^−8 M, in %), 5.4. In the same order, the values of `C[C@@H]1C(C(=O)NN2CCCCC2)=NN(c2ccc(Cl)cc2Cl)[C@H]1c1ccc(O)cc1` (relative stereo) [Example 344, trans-1-(2,4-dichlorophenyl)-5-(4-hydroxyphenyl)-4-methyl-N-(piperidin-1-yl)-4,5-dihydro-1H-pyrazole-3-carboxamide] are −23.3% and −27.3.

For `C[C@@H]1C(C(=O)O)=NN(c2ccccc2Cl)[C@@H]1c1ccc(Cl)s1` (relative stereo) [Example 363, cis-1-(2-chlorophenyl)-5-(5-chlorothiophen-2-yl)-4-methyl-4,5-dihydro-1H-pyrazole-3-carboxylic acid], the Inhibition on CB1-receptor [2] (10^−7 M) came out at 11.3%; on CB1-receptor [2] (10^−8 M, in %), 12.2.

For `C[C@H]1C(C(=O)O)=NN(c2ccc(Cl)cc2Cl)[C@H]1c1ccc(Br)cc1` (relative stereo) [Example 413, cis-5-(4-bromophenyl)-1-(2,4-dichlorophenyl)-4-methyl-4,5-dihydro-1H-pyrazole-3-carboxylic acid], the Inhibition at CB1-receptor [2] (10^−7 M) came out at 17.3%; on CB1-receptor [2] (10^−8 M, in %) it was 13.8. On the same counts, the results for `C[C@@H]1C(C(=O)NN2CCc3ccccc32)=NN(c2ccc(Cl)cc2Cl)[C@@H]1c1ccc(Br)cc1` (relative stereo) [Example 415, cis-5-(4-bromophenyl)-1-(2,4-dichlorophenyl)-N-(indolin-1-yl)-4-methyl-4,5-dihydro-1H-pyrazole-3-carboxamide] are 79.3% and 32.3. On the same counts, the results for `C[C@@H]1C(C(=O)NN2CCCCC2)=NN(c2ccc(Cl)cc2Cl)[C@@H]1c1ccc(F)cc1.Cl` (relative stereo) [Example 417, cis-1-(2,4-dichlorophenyl)-5-(4-fluorophenyl)-4-methyl-N-(piperidin-1-yl)-4,5-dihydro-1H-pyrazole-3-carboxamide hydrochloride] are 38.5% and 14.8. In the same order, the values of `CCOC(=O)C1=NN(c2ccc(Cl)cc2Cl)[C@@H](c2ccccc2)[C@@H]1C` (relative stereo) [Example 421, trans-ethyl 1-(2,4-dichlorophenyl)-4-methyl-5-phenyl-4,5-dihydro-1H-pyrazole-3-carboxylate] are 31.2% and 38. As for `CC[C@@H]1C(C(=O)NN2CCCCC2)=NN(c2ccc(Cl)cc2Cl)[C@@H]1c1ccc(Br)cc1.Cl` (relative stereo) [Example 428, cis-5-(4-bromophenyl)-1-(2,4-dichlorophenyl)-4-ethyl-N-(piperidin-1-yl)-4,5-dihydro-1H-pyrazole-3-carboxamide hydrochloride], the Inhibition stood at 42.6% at CB1-receptor [2] (10^−7 M) and 28.4 at CB1-receptor [2] (10^−8 M, in %). `C[C@@H]1C(C(=O)NN2CCCCCC2)=NN(c2ccc(Cl)cc2Cl)[C@@H]1c1ccc(F)cc1` (stereo in doubt) [Example 414, cis-N-(azepan-1-yl)-1-(2,4-dichlorophenyl)-5-(4-fluorophenyl)-4-methyl-4,5-dihydro-1H-pyrazole-3-carboxamide]: the Inhibition is recorded as 36.2% at CB1-receptor [2] (10^−7 M) and 28.7 on CB1-receptor [2] (10^−8 M, in %). In the same order, the values of `COc1ccc([C@@H]2[C@@H](C)C(C(=O)O)=NN2c2ccc(Cl)cc2Cl)cc1` [Example 412, (4R,5S)-1-(2,4-dichlorophenyl)-5-(4-methoxyphenyl)-4-methyl-4,5-dihydro-1H-pyrazole-3-carboxylic acid] are −15.4% and −11.1. In the same order, the values of `C[C@@H]1C(C(=O)NN2CCCCC2)=NN(c2ccc(Cl)cc2Cl)[C@@H]1c1ccc(Cl)cc1` [Example 420, (+)-cis-5-(4-chlorophenyl)-1-(2,4-dichlorophenyl)-4-methyl-N-(piperidin-1-yl)-4,5-dihydro-1H-pyrazole-3-carboxamide] are 30.4% and 2.8. Take `CC1C(C(=O)O)=NN(c2ccc(Cl)cc2Cl)C1c1ccccc1` (stereo not drawn) [Example 429, 1-(2,4-dichlorophenyl)-4-methyl-5-phenyl-4,5-dihydro-1H-pyrazole-3-carboxylic acid]: the Inhibition is given as −11% on CB1-receptor [2] (10^−7 M) and −10.1 at CB1-receptor [2] (10^−8 M, in %). In the case of “cis-1-(2,4-dichlorophenyl)-5-(4-hydroxyphenyl)-4-methyl-N-(piperidin-1-yl)-4,5-dihydro-1H-pyrazole-3-carboxamide [Example 343]”, the Inhibition on CB1-receptor [2] (10^−7 M) is on record as −10.1%; at CB1-receptor [2] (10^−8 M, in %), −15.8.
